Data taken from PubChem BioAssay AID264 (DTP/NCI, 2004).
Where “and” joins values, the source holds several entries; their conditions need not be identical. Equal values may be shown once. Inconclusive results are not listed.

System: nude mice, LX-1 lung xenograft intrarenal, tumor weight T/C
Experiment: NCI In Vivo Anticancer Drug Screen. Data for tumor model Human Lung LX-1 Xenograft (intrarenal inoculation) in NU/NU Swiss (nude) mice
Conditions: endpoint: mean tumor weight change, higher = larger tumour
Summary of the method: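 In vivo, transplantable tumor; compound vs vehicle arms; tumor size measured; value = T/C.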

[1] = dose: 12.0 mg/kg/injection, schedule: Q04DX003 (sc), vehicle: saline
[2] = dose: 100.0 mg/kg/injection, schedule: Q04DX003 (sc), vehicle: saline with Tween-80
[3] = dose: 200.0 mg/kg/injection, schedule: Q04DX003 (sc), vehicle: saline with Tween-80
[4] = dose: 800.0 mg/kg/injection, schedule: Q04DX003 (sc), vehicle: saline with Tween-80
[5] = dose: 400.0 mg/kg/injection, schedule: Q04DX003 (sc), vehicle: saline with Tween-80
[6] = dose: 150.0 mg/kg/injection, schedule: Q04DX003 (sc), vehicle: Klucel (hydroxypropylcellulose) (HPC)
[7] = dose: 300.0 mg/kg/injection, schedule: Q04DX003 (sc), vehicle: Klucel (hydroxypropylcellulose) (HPC)
[8] = dose: 600.0 mg/kg/injection, schedule: Q04DX003 (sc), vehicle: Klucel (hydroxypropylcellulose) (HPC)
[9] = dose: 1200.0 mg/kg/injection, schedule: Q04DX003 (sc), vehicle: Klucel (hydroxypropylcellulose) (HPC)
[10] = dose: 2400.0 mg/kg/injection, schedule: Q04DX003 (sc), vehicle: Klucel (hydroxypropylcellulose) (HPC)

How did the T/C (dose: 0.63 mg/kg/injection, schedule: Q04DX003 (sc), vehicle: saline) turn out when `CO[C@@]12[C@H](COC(N)=O)C3=C(C(=O)C(C)=C(N)C3=O)N1C[C@@H]1N[C@@H]12` was run?
Its T/C is 98 % of control.

What about the T/C (dose: 1.25 mg/kg/injection, schedule: Q04DX003 (sc), vehicle: saline) of the same molecule?
The T/C was 32 % of control and 40 % of control and 42 % of control.

And the T/C (dose: 1.5 mg/kg/injection, schedule: Q04DX003 (sc), vehicle: saline)?
Its T/C is 42 % of control.

And the T/C (dose: 3.0 mg/kg/injection, schedule: Q04DX003 (sc), vehicle: saline)?
Its T/C is 14 % of control and 16 % of control (2×).

And the T/C (dose: 3.0 mg/kg/injection, schedule: Q04DX003 (sc), vehicle: suspension in saline)?
The T/C was 3 % of control.

What about the T/C (dose: 6.0 mg/kg/injection, schedule: Q04DX003 (sc), vehicle: suspension in saline) of the same molecule?
The T/C was -55 % of control.

And the T/C [1]?
Its T/C is -76 % of control.

What does the source list for `CCCCOCN(COCCCC)C(C)Cc1ccccc1` (stereo unspecified)?
T/C [2]: 71 % of control; T/C [3]: 85 % of control; T/C [4]: 121 % of control

Which T/C [2] does the source give for `C/C(=N\NC(N)=O)c1cccc(/C(C)=N/NC(N)=O)n1` here?
Its T/C is 83 % of control.

What about the T/C [3] of the same molecule?
Its T/C is 54 % of control.

And the T/C [5]?
The T/C was 71 % of control.

And the T/C [4]?
Its T/C is 89 % of control.

Which results are given for `C[C@@](O)(/C=C/[C@H]1CC=CC(=O)O1)[C@@H](C[C@@H](O)\C=C/C=C\C=C\CO)OP(=O)(O)O`?
T/C (dose: 7.5 mg/kg/injection, schedule: Q04DX003 (sc), vehicle: other): 160 % of control; T/C (dose: 15.0 mg/kg/injection, schedule: Q04DX003 (sc), vehicle: other): 168 % of control

Which results are given for `Clc1ccc2nnnn2n1`?
T/C (dose: 50.0 mg/kg/injection, schedule: Q04DX003 (sc), vehicle: saline with Tween-80): 72 % of control; T/C [2]: 88 % of control; T/C [3]: 85 % of control; T/C [5]: 93 % of control

What does the source list for `C=C(C)[C@H]1Cc2c(ccc3c2O[C@@H]2COc4cc(OC)c(OC)cc4[C@@H]2C3=O)O1`?
T/C (dose: 2.0 mg/kg/injection, schedule: Q01DX010 (sc), vehicle: saline with Tween-80): 286 % of control; T/C (dose: 4.0 mg/kg/injection, schedule: Q01DX010 (sc), vehicle: saline with Tween-80): 62 % of control

With `CC1(C)COCN1COC1CCCCC1` as the molecule, how does the T/C [2] read?
The T/C was 76 % of control.

What about the T/C [3] of the same molecule?
The T/C was 119 % of control.

What about the T/C [5] of the same molecule?
Its T/C is 68 % of control.

What about the T/C [4] of the same molecule?
The T/C was 110 % of control.

Which results are given for `N/C(=N\OC(=O)Nc1ccc(CSc2ccc(Cl)cc2)o1)c1ccccn1`?
T/C (dose: 75.0 mg/kg/injection, schedule: Q04DX003 (sc), vehicle: Klucel (hydroxypropylcellulose) (HPC)): 69 % of control; T/C [6]: 66 % of control; T/C [7]: 180 % of control

What does the source list for `CCN=C=NCCCN(C)C`?
T/C (dose: 25.0 mg/kg/injection, schedule: Q04DX003 (sc), vehicle: saline): 99 % of control; T/C (dose: 50.0 mg/kg/injection, schedule: Q04DX003 (sc), vehicle: saline): 102 % of control; T/C (dose: 100.0 mg/kg/injection, schedule: Q04DX003 (sc), vehicle: saline): 84 % of control

For `N#CC(=C1SCS1)[N+](=O)[O-]`, which T/C (dose: 6.0 mg/kg/injection, schedule: Q04DX003 (sc), vehicle: saline) is on record?
The T/C was 79 % of control.

And the T/C [1]?
The T/C was 103 % of control.

What about the T/C (dose: 24.0 mg/kg/injection, schedule: Q04DX003 (sc), vehicle: saline) of the same molecule?
The T/C was 109 % of control.

And the T/C (dose: 48.0 mg/kg/injection, schedule: Q04DX003 (sc), vehicle: saline)?
The T/C was 94 % of control.

What does the source list for `CN1C(=O)NC(c2ccc(Cl)cc2)(c2ccc(Cl)cc2)C1=O`?
T/C (dose: 50.0 mg/kg/injection, schedule: Q01DX010 (sc), vehicle: saline with Tween-80): 212 % of control; T/C (dose: 100.0 mg/kg/injection, schedule: Q01DX010 (sc), vehicle: saline with Tween-80): 191 % of control; T/C (dose: 400.0 mg/kg/injection, schedule: Q01DX010 (sc), vehicle: saline with Tween-80): 64 % of control

`CC1CCC(NC(=O)N(CCCl)N=O)CC1` (stereo unspecified) was tested. Which T/C (dose: 6.25 mg/kg/injection, schedule: Q01DX010 (sc), vehicle: Klucel (hydroxypropylcellulose) (HPC)) did it give?
The T/C was 34 % of control.

And the T/C (dose: 12.5 mg/kg/injection, schedule: Q01DX010 (sc), vehicle: Klucel (hydroxypropylcellulose) (HPC))?
Its T/C is 5 % of control.

How did the T/C (dose: 25.0 mg/kg/injection, schedule: Q01DX010 (sc), vehicle: dextrose) turn out when `CC(C)[NH-].CC(C)[NH-].[Cl][Pt+2][Cl]` was run?
Its T/C is 48 % of control.

What about the T/C (dose: 50.0 mg/kg/injection, schedule: Q01DX010 (sc), vehicle: dextrose) of the same molecule?
The T/C was 50 % of control.

What about the T/C (dose: 100.0 mg/kg/injection, schedule: Q01DX010 (sc), vehicle: dextrose) of the same molecule?
Its T/C is 71 % of control.

What does the source list for `CC1(CO)C(O)CCC2(C)C1CCC1CC3CC12CCC3(O)CO` (stereo unspecified)?
T/C (dose: 6.25 mg/kg/injection, schedule: Q01DX010 (sc), vehicle: saline with Tween-80): 181 % of control; T/C (dose: 12.5 mg/kg/injection, schedule: Q01DX010 (sc), vehicle: saline with Tween-80): 58 % of control; T/C (dose: 25.0 mg/kg/injection, schedule: Q01DX010 (sc), vehicle: saline with Tween-80): 78 % of control; T/C (dose: 600.0 mg/kg/injection, schedule: Q01DX010 (sc), vehicle: saline with Tween-80): 67 % of control

How did the T/C (dose: 75.0 mg/kg/injection, schedule: Q04DX003 (sc), vehicle: saline) turn out when `N=C(N)Sc1cc(O)ccc1O` was run?
The T/C was 91 % of control.

And the T/C (dose: 150.0 mg/kg/injection, schedule: Q04DX003 (sc), vehicle: saline)?
The T/C was 164 % of control.

Which T/C (dose: 2.0 mg/kg/injection, schedule: Q01DX010 (sc), vehicle: water) does the source give for `CCOC(OCC)C(=O)OCC(=O)[C@]1(O)Cc2c(O)c3c(c(O)c2[C@@H](OC2CC(N)C(O)C(C)O2)C1)C(=O)c1c(OC)cccc1C3=O` (stereo partly specified) here?
The T/C was 68 % of control.

What about the T/C (dose: 4.0 mg/kg/injection, schedule: Q01DX010 (sc), vehicle: water) of the same molecule?
The T/C was 27 % of control.

For `COC1/C=C\C=C(/C)C(=O)NC2=CC(=O)C=C(C2=O)C(OC)C(C)CC(OC)C(OC)C(C)/C=C(/C)C1OC(N)=O` (stereo unspecified), which T/C (dose: 4.5 mg/kg/injection, schedule: Q04DX003 (sc), vehicle: Klucel (hydroxypropylcellulose) (HPC)) is on record?
Its T/C is 82 % of control.

Which T/C (dose: 100.0 mg/kg/injection, schedule: Q01DX010 (sc), vehicle: saline) does the source give for `CNC=O` here?
Its T/C is 35 % of control.

What about the T/C (dose: 200.0 mg/kg/injection, schedule: Q01DX010 (sc), vehicle: saline) of the same molecule?
The T/C was 7 % of control and 15 % of control and 21 % of control.

And the T/C (dose: 400.0 mg/kg/injection, schedule: Q01DX010 (sc), vehicle: saline)?
Its T/C is 1 % of control and 2 % of control and 24 % of control.

What about the T/C (dose: 1600.0 mg/kg/injection, schedule: Q01DX010 (sc), vehicle: saline) of the same molecule?
The T/C was 1 % of control.

For `NC(=O)c1ncn(C2OC(CO)C(O)C2O)c1O` (stereo unspecified), which T/C [6] is on record?
Its T/C is 99 % of control.

How did the T/C (dose: 12.5 mg/kg/injection, schedule: Q04DX003 (sc), vehicle: suspension in saline) turn out when `O=[Te]=O` was run?
Its T/C is 150 % of control.

`CSc1ncc2ncn(C3OC(CO)C(O)C3O)c2n1` (stereo unspecified) was tested. Which T/C [7] did it give?
The T/C was 61 % of control.

And the T/C [8]?
The T/C was 57 % of control.

And the T/C [9]?
Its T/C is 56 % of control.

And the T/C [10]?
The T/C was 53 % of control.

Which results are given for `CN(C(=S)S(=O)(=O)C12CC3CC(CC(C3)C1)C2)c1ccccc1`?
T/C (dose: 50.0 mg/kg/injection, schedule: Q04DX003 (sc), vehicle: Klucel (hydroxypropylcellulose) (HPC)): 164 % of control; T/C (dose: 100.0 mg/kg/injection, schedule: Q04DX003 (sc), vehicle: Klucel (hydroxypropylcellulose) (HPC)): 161 % of control; T/C (dose: 400.0 mg/kg/injection, schedule: Q04DX003 (sc), vehicle: Klucel (hydroxypropylcellulose) (HPC)): 176 % of control

Which T/C (dose: 0.25 mg/kg/injection, schedule: Q04DX003 (sc), vehicle: Klucel (hydroxypropylcellulose) (HPC)) does the source give for `CC1(O)CC23CC(O)C4(O)C(CC(O)C4(C)C)C(C)(O)C2CCC1C3O` (stereo unspecified) here?
Its T/C is 78 % of control.

What about the T/C (dose: 0.5 mg/kg/injection, schedule: Q04DX003 (sc), vehicle: Klucel (hydroxypropylcellulose) (HPC)) of the same molecule?
The T/C was 77 % of control.

And the T/C (dose: 1.0 mg/kg/injection, schedule: Q04DX003 (sc), vehicle: Klucel (hydroxypropylcellulose) (HPC))?
The T/C was 58 % of control.

With `C=C[Si]12OCCN(CCO1)CCO2` as the molecule, how does the T/C [7] read?
The T/C was 250 % of control.

What about the T/C [8] of the same molecule?
Its T/C is 212 % of control.

What about the T/C [9] of the same molecule?
The T/C was 163 % of control.

Which results are given for `CCC[P+](c1ccccc1)(c1ccccc1)c1ccccc1`?
T/C (dose: 37.5 mg/kg/injection, schedule: Q04DX003 (sc), vehicle: saline with Tween-80): 83 % of control; T/C (dose: 75.0 mg/kg/injection, schedule: Q04DX003 (sc), vehicle: saline with Tween-80): 79 % of control; T/C (dose: 150.0 mg/kg/injection, schedule: Q04DX003 (sc), vehicle: saline with Tween-80): 79 % of control

For `CC(C)(C)C1CCCCC1`, which T/C [7] is on record?
The T/C was 94 % of control.

What about the T/C [8] of the same molecule?
The T/C was 68 % of control.

And the T/C [9]?
The T/C was 59 % of control.

And the T/C [10]?
Its T/C is 46 % of control.

`CCCCC(=O)OCC(=O)[C@]1(O)Cc2c(O)c3c(c(O)c2[C@@H](OC2CC(NC(=O)C(F)(F)F)C(O)C(C)O2)C1)C(=O)c1c(OC)cccc1C3=O` (stereo partly specified) was tested. Which T/C (dose: 32.0 mg/kg/injection, schedule: Q01DX010 (sc), vehicle: distilled water + Tween-80) did it give?
Its T/C is 84 % of control.

And the T/C (dose: 512.0 mg/kg/injection, schedule: Q01DX010 (sc), vehicle: distilled water + Tween-80)?
Its T/C is 5 % of control and 8 % of control and 26 % of control.
